Laboratory results reported in US10597388B2, “Pyridazinone herbicides” (FMC CORPORATION, priority 2014, dated 2020).

Experiments:
Experiment in all cases: Test D controlled growth environment herbicide test, pre- and postemergence
Type in all cases: in vivo
[1] = tested on: chamomile (scentless chamomile, Matricaria inodora)
Procedure, shortened: (§1)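 Species sown in silt loam and sprayed preemergence, or grown in peat-based medium to 2–18 cm (1- to 4-leaf stage) and sprayed postemergence, with compounds in non-phytotoxic solvent plus surfactant. Visual injury scored versus controls after 14–21 d in a controlled environment, 0 (no effect) to 100 (complete control).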

[2] = tested on: oilseed rape (Brassica napus)
Procedure, shortened: as §1

[3] = tested on: galium (catchweed bedstraw, Galium aparine)
Procedure, shortened: as §1

[4] = tested on: lambsquarters (Chenopodium album)
Procedure, shortened: as §1

[5] = tested on: chickweed (common chickweed, Stellaria media)
Procedure, shortened: as §1

[6] = tested on: deadnettle (henbit deadnettle, Lamium amplexicaule)
Procedure, shortened: as §1

[7] = tested on: canarygrass (Phalaris minor)
Procedure, shortened: as §1

[8] = tested on: buckwheat, wild (wild buckwheat, Polygonum convolvulus)
Procedure, shortened: as §1

[9] = tested on: wheat, winter (winter wheat, Triticum aestivum)
Procedure, shortened: as §1

[10] = tested on: bromegrass, downy (downy bromegrass, Bromus tectorum)
Procedure, shortened: as §1

[11] = tested on: windgrass (Apera spica-venti)
Procedure, shortened: as §1

[12] = tested on: ryegrass, Italian (Italian ryegrass, Lolium multiflorum)
Procedure, shortened: as §1

[13] = tested on: field violet (Viola arvensis)
Procedure, shortened: as §1

[14] = tested on: foxtail, green (green foxtail, Setaria viridis)
Procedure, shortened: as §1

[15] = Postemergence, 31 g ai/ha, scale 0 to 100 (0 no effect, 100 complete control)
[16] = Postemergence, 125 g ai/ha, visual rating on scale 0 (no effect) to 100 (complete control), 14 to 21 d
[17] = Postemergence, 250 g ai/ha, scale 0 to 100 (0 no effect, 100 complete control)
[18] = Preemergence, 62 g ai/ha, scale 0 to 100 (0 no effect, 100 complete control)
[19] = Preemergence, 125 g ai/ha, scale 0 to 100 (0 no effect, 100 complete control)
[20] = Preemergence, 250 g ai/ha, scale 0 to 100, 0 no effect, 100 complete control
[21] = postemergence, 62 g ai/ha, scale 0 to 100, 0 no effect, 100 complete control

Cc1ccc2sc(C)c(-c3c(OC(=O)OC(C)C)c(C)nn(C)c3=O)c2c1 [Compound 66]
15: Deadnettle plant response rating [6, 15] | Plant response rating (scale of 0 to 100), Deadnettle ([6]; Preemergence, 31 g ai/ha) | Plant response rating, Deadnettle [6, 21] | Plant response rating (scale of 0 to 100), Bromegrass, Downy ([10]; Preemergence, 31 g ai/ha) | Plant response rating (scale of 0 to 100), Foxtail, Green ([14]; Preemergence, 31 g ai/ha)
65: Plant response rating, Oilseed Rape [2, 16] | Plant response rating, Galium [3, 19] | Plant response rating, Canarygrass [7, 21] | Plant response rating, Bromegrass, Downy [10, 16] | Plant response rating, Foxtail, Green [14, 19]
75: Plant response rating, Oilseed Rape [2, 17] | Plant response rating, Galium [3, 20] | Chickweed plant response rating [5, 15] | Windgrass plant response rating [11, 15] | Plant response rating, Windgrass [11, 18] | Foxtail, Green plant response rating [14, 15]
95: Lambsquarters plant response rating [4, 15] | Plant response rating, Lambsquarters [4, 21] | Plant response rating, Canarygrass [7, 20] | Buckwheat, Wild plant response rating [8, 15] | Plant response rating, Ryegrass, Italian [12, 16] | Plant response rating, Ryegrass, Italian [12, 20] | Plant response rating, Ryegrass, Italian [12, 21] | Plant response rating, Field Violet [13, 16] | Plant response rating, Field Violet [13, 17] | Plant response rating, Field Violet [13, 19] | Plant response rating, Field Violet [13, 21]
85: Chamomile plant response rating [1, 15] | Galium plant response rating [3, 15] | Plant response rating, Chickweed [5, 21] | Plant response rating, Canarygrass [7, 17] | Plant response rating, Canarygrass [7, 19] | Plant response rating, Bromegrass, Downy [10, 20] | Plant response rating, Windgrass [11, 16] | Plant response rating, Windgrass [11, 19] | Plant response rating, Windgrass [11, 20] | Ryegrass, Italian plant response rating [12, 15] | Plant response rating, Ryegrass, Italian [12, 18] | Field Violet plant response rating [13, 15] | Plant response rating, Field Violet [13, 18]
0: Oilseed Rape plant response rating [2, 15] | Plant response rating (scale of 0 to 100), Galium ([3]; Preemergence, 31 g ai/ha) | Plant response rating (scale of 0 to 100), Buckwheat, Wild ([8]; Preemergence, 31 g ai/ha) | Plant response rating, Buckwheat, Wild [8, 18] | Plant response rating, Buckwheat, Wild [8, 19] | Plant response rating, Buckwheat, Wild [8, 20] | Wheat, Winter plant response rating [9, 15] | Plant response rating, Wheat, Winter [9, 16] | Plant response rating, Wheat, Winter [9, 17] | Plant response rating (scale of 0 to 100), Wheat, Winter ([9]; Preemergence, 31 g ai/ha) | Plant response rating, Wheat, Winter [9, 18] | Plant response rating, Wheat, Winter [9, 19] | Plant response rating, Wheat, Winter [9, 20] | Plant response rating, Wheat, Winter [9, 21]
25: Plant response rating (scale of 0 to 100), Canarygrass ([7]; Preemergence, 31 g ai/ha)
20: Plant response rating, Oilseed Rape [2, 21] | Plant response rating, Galium [3, 18]
60: Plant response rating, Bromegrass, Downy [10, 18] | Plant response rating, Bromegrass, Downy [10, 21] | Plant response rating (scale of 0 to 100), Field Violet ([13]; Preemergence, 31 g ai/ha)
70: Plant response rating, Canarygrass [7, 16] | Plant response rating, Bromegrass, Downy [10, 17] | Plant response rating (scale of 0 to 100), Windgrass ([11]; Preemergence, 31 g ai/ha) | Plant response rating, Foxtail, Green [14, 20]
55: Plant response rating (scale of 0 to 100), Lambsquarters ([4]; Preemergence, 31 g ai/ha) | Plant response rating, Deadnettle [6, 19] | Plant response rating, Deadnettle [6, 20] | Canarygrass plant response rating [7, 15]
100: Plant response rating, Chamomile [1, 16] | Plant response rating, Chamomile [1, 17] | Plant response rating, Chamomile [1, 18] | Plant response rating, Chamomile [1, 19] | Plant response rating, Chamomile [1, 20] | Plant response rating, Galium [3, 16] | Plant response rating, Galium [3, 17] | Plant response rating, Galium [3, 21] | Plant response rating, Lambsquarters [4, 16] | Plant response rating, Lambsquarters [4, 17] | Plant response rating, Lambsquarters [4, 18] | Plant response rating, Lambsquarters [4, 19] | Plant response rating, Lambsquarters [4, 20] | Plant response rating, Chickweed [5, 16] | Plant response rating, Chickweed [5, 17] | Plant response rating, Chickweed [5, 18] | Plant response rating, Chickweed [5, 19] | Plant response rating, Chickweed [5, 20] | Plant response rating, Buckwheat, Wild [8, 16] | Plant response rating, Buckwheat, Wild [8, 17] | Plant response rating, Buckwheat, Wild [8, 21] | Plant response rating, Windgrass [11, 17]
98: Plant response rating, Ryegrass, Italian [12, 17] | Plant response rating, Field Violet [13, 20] | Plant response rating, Foxtail, Green [14, 17]
35: Plant response rating (scale of 0 to 100), Oilseed Rape ([2]; Preemergence, 31 g ai/ha) | Plant response rating, Oilseed Rape [2, 18] | Plant response rating, Oilseed Rape [2, 19] | Plant response rating, Oilseed Rape [2, 20] | Plant response rating, Deadnettle [6, 16] | Plant response rating, Foxtail, Green [14, 18]
80: Plant response rating, Canarygrass [7, 18] | Plant response rating, Bromegrass, Downy [10, 19] | Plant response rating, Windgrass [11, 21] | Plant response rating (scale of 0 to 100), Ryegrass, Italian ([12]; Preemergence, 31 g ai/ha) | Plant response rating, Foxtail, Green [14, 21]
50: Bromegrass, Downy plant response rating [10, 15]
90: Plant response rating (scale of 0 to 100), Chamomile ([1]; Preemergence, 31 g ai/ha) | Plant response rating, Chamomile [1, 21] | Plant response rating (scale of 0 to 100), Chickweed ([5]; Preemergence, 31 g ai/ha) | Plant response rating, Ryegrass, Italian [12, 19] | Plant response rating, Foxtail, Green [14, 16]
40: Plant response rating, Deadnettle [6, 17] | Plant response rating, Deadnettle [6, 18]
